Experimental data as given in patent publication US20090170869A1, “PIPERAZINE DERIVATIVE HAVING AFFINITY FOR THE HISTAMINE H3 RECEPTOR” (priority 2007, published 2009).
Counter-ions that a name gives are not always drawn.

Legend:
rodent models = settings: five choice task, object recognition, elevated plus maze, acquisition of novel task, passive avoidance; literature reports; cited from earlier work
[1] = molecular target: T1, brain histamine H3 receptor (Rattus norvegicus, UniProt Q9QYN8); assay: Rat ex vivo binding studies - rat brain histamine H3 receptor occupancy ([3H]-R-α-methylhistamine); assay type: in vivo; settings: for inhibition of [3H]-R-α-methylhistamine specific binding to the H3 receptor (surrogate for rat brain H3 receptor occupancy): 10 mg/kg oral; for specific binding of [3H]-R-α-methylhistamine to the H3 receptor: rats n=3, 10 mg/kg oral, mean ± SEM
T1 construct: from tissue; host or cells: cerebral cortex homogenate of adult male Lister hooded rats
Protocol: Ex vivo binding studies were carried out to determine brain histamine H3 receptor occupancy in rats at certain time points after oral administration of a test compound.
Adult male rats (Lister hooded 200-250 g, Charles River, UK) received vehicle (1% w/v aqueous methylcellulose) (control) or the test compound (10 mg/kg) by oral gavage (n=3 per group) and were sacrificed 1 or 4 hours following oral dosing. The 1 hour and 4 hour studies were not necessarily done on the same day. Terminal blood samples were collected and brains rapidly removed. Cerebral cortex tissue was dissected from half of each brain for ex vivo binding; the other half brain can be used for pharmacokinetic analysis of brain concentrations of each compound. All dissected tissue samples were snap-frozen in liquid nitrogen, and stored at −80° C. until use. The tissues were rapidly thawed and homogenised in approximately 30 volumes of ice cold assay reaction buffer. The assay reaction buffer contained 50 mM Tris-HCl (made up using Trizma pre-set crystals pH 7.7 @25° C., Sigma cat. No. T8068-250G) and 5 mM EDTA, with a final buffer pH of 7.2 to 7.8, usually about 7.4. The crude homogenate (600-800 μg/well) was then used to measure H3 receptor binding using [^3H]-R-α-methylhistamine as radioligand. Assays measuring total binding of [^3H]-R-α-methylhistamine consisted of 50 μl assay reaction buffer, 400 μl of homogenate (corresponding to 600-800 μg/well) and 50 μl of 2 nM R(−)α-Methyl[imidazole-2,5(n)-3H]histamine dihydrochloride ([^3H]-R-α-methylhistamine; specific activity, 24 Ci mmol^−1, Amersham Biosciences, catalogue no. TRK1017). Incubations with [^3H]-R-α-methylhistamine were for 45 min at 30° C. Non-specific binding of [^3H]-R-α-methylhistamine was determined in parallel using the same assay except that 50 μl of 10 μM imetit (an H3 receptor agonist, e.g. available from Tocris) was used instead of the 50 μl of assay reaction buffer. The experiments were terminated by rapid filtration through Whatman GF/B filters (pre-soaked in 0.3% v/v polyethyleneimine (PEI)), and then the filters were washed through with 4×5 ml of ice cold harvesting buffer. The harvesting buffer contained 50 mM Tris-HCl (from Trizma pre-set crystals pH 7.7 @ 25° C.) and 5 mM MgCl2, with a final buffer pH of 7.2 to 7.8, usually about 7.4. Filters were dried and added to vials each containing 4 ml Ultima Gold MV scintillation fluid (Hewlett Packard) and radioactivity determined by liquid scintillation spectrometry using a Packard Tri-Carb 2500TR liquid scintillation counter.
Specific binding of [^3H]-R-α-methylhistamine to the H3 receptor was determined by the subtraction of the value obtained for non-specific binding from the value obtained for total binding.
Protein concentrations were determined using the Bradford assay method (Bio-Rad
Protein Assay Dye Reagent Concentrate, catalogue no. 500-0006; from Bio-Rad Laboratories GmbH, Heidemannstrasse 164, 80939 Muenchen, Germany; or from Bio-Rad, York, UK) with bovine serum albumin as a standard. Specific radioactivity in the samples was corrected for protein (i.e. per microgram of protein).
The specific binding of [^3H]-R-α-methylhistamine to the H3 receptor is expressed as a mean (n=3 rats)±SEM (standard error of the mean), as a percentage of vehicle-treated control animals. Data is also expressed as inhibition of [^3H]-R-α-methylhistamine specific binding to the H3 receptor, as a surrogate measure for H3 receptor occupancy by the test compound, calculated as 100% minus the % mean specific binding of [^3H]-R-α-methylhistamine to the H3 receptor.

[2] = Plasma clearance in the pig-PET study; assay type: in vivo; settings: Yorkshire-Landrace, iv, 50 ug/kg, 50 micrograms/kg i.v.
H3 receptor = H3 receptor (Sus scrofa, UniProt A0A287B9V8); assay: Pig-PET study with [11C]GSK189254: pig brain H3 receptor occupancy over time and kon-koff limited model; settings: 50 micrograms/kg i.v.; for Measured H3 receptor occupancy @ 10 min: 10 minutes post administration; for Measured H3 receptor occupancy @ 2.5 h: 2.5 hours post administration; for Measured H3 receptor occupancy @ 6 h: 6 hours post administration; for Kd: Kd (koff/kon); for koff: iv; for koff / kon: Salt B
histamine H3 receptor = molecular target: T2, histamine H3 receptor (Rattus norvegicus, UniProt Q9QYN8); settings: following oral administration to the rat; Medhurst et al. 2007; cited from earlier work
T2 construct: host or cells: rat cortex

rats = settings: at certain oral doses; passive avoidance, water maze, object recognition, attentional set shift; Medhurst et al. 2007; cited from earlier work
[3] = Preliminary HCl-salt-formation and crystallisation experiments (crystal form stability); assay type: physicochemical; settings: hydrochloride salt crystal forms; without being bound by theory
Source text: Crystalline Form 1 (or a predominance of crystalline Form 1) is often formed initially depending on the conditions, but, depending on the conditions (such as the type of solvent and the solubility of crystalline Form 1 in it, and/or the temperature and/or temperature time course, and/or the contact time of the crystalline Form 1 with the solvent), the crystalline Form 1 can then often convert to crystalline Form 2 to a greater or lesser extent when in contact with a suitable solvent i.e. a solvent suitable for converting crystalline Form 1 to crystalline Form 2.

[4] = mean ± standard deviation, n=3 pigs
[5] = average model (from average plasma data and average occupancy)

H3 receptor, sequence (A0A287B9V8 1-448): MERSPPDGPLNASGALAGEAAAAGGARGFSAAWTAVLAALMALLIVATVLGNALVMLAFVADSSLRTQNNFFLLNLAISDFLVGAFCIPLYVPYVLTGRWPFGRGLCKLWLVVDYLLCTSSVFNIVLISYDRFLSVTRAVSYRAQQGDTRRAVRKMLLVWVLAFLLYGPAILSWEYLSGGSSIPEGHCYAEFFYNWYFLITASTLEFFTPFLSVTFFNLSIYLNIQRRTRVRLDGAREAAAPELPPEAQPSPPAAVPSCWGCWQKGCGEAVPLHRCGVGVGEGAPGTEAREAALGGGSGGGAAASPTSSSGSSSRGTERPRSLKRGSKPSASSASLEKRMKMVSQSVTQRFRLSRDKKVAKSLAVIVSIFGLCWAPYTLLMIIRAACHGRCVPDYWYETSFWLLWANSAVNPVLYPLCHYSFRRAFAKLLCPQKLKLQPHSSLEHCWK
T1 sequence (Q9QYN8 whole entry): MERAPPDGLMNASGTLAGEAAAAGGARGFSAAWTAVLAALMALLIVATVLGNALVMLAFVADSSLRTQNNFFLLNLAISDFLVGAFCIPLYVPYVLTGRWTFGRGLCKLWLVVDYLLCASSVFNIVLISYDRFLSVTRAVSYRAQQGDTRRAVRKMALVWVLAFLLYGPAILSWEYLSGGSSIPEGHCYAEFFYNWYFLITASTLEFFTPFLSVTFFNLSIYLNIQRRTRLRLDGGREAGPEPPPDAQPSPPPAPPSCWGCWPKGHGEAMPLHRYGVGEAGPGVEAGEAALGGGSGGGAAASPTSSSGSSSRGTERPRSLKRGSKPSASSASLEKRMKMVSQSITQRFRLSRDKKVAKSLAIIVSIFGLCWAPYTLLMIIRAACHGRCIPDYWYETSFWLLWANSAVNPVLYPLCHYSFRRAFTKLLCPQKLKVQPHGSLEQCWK
T2 sequence (Q9QYN8 whole entry): as above

## S=C(NC1CCCCC1)N1CCC(c2cnc[nH]2)CC1 [thioperamide]
Rodent models
  cognitive effect in rodent models: cognitive enhancing properties

## NC(=NCc1ccc(Cl)cc1)SCCCc1cnc[nH]1 [clobenpropit]
Rodent models
  cognitive effect in rodent models: cognitive enhancing properties

## CC(C)N1CCCN(C(=O)c2ccc(OC3CCOCC3)cc2)CC1 [Salt B, reference compound]
[1]; 1 hour after dosing
  inhibition of [3H]-R-α-methylhistamine specific binding to the H3 receptor (surrogate for rat brain H3 receptor occupancy): about 60%
[1]; 4 hours after dosing
  inhibition of [3H]-R-α-methylhistamine specific binding to the H3 receptor (surrogate for rat brain H3 receptor occupancy): about 12%
[1]; sacrificed 1 hour after dosing
  specific binding of [3H]-R-α-methylhistamine to the H3 receptor: 40%+4%
[1]; sacrificed 4 hours after dosing
  specific binding of [3H]-R-α-methylhistamine to the H3 receptor: 88%+6%
[2]; average model (from average plasma data)
  clearance: 48.3 mL/min
[2]; mean of pigs 1-3
  clearance: 46.7 mL/min
[2]; pig 1
  clearance: 60 mL/min
[2]; pig 2
  clearance: 30 mL/min
[2]; pig 3
  clearance: 46.7 mL/min
H3 receptor; [4]
  Measured H3 receptor occupancy @ 10 min: 63% ± 10%
  Measured H3 receptor occupancy @ 2.5 h: 37% ± 16%
  Measured H3 receptor occupancy @ 6 h: 33% ± 4%
H3 receptor; pig 1
  Measured H3 receptor occupancy @ 10 min: 51%
  Measured H3 receptor occupancy @ 2.5 h: 19%
  Measured H3 receptor occupancy @ 6 h: 30%
H3 receptor; pig 2
  Measured H3 receptor occupancy @ 10 min: 69%
  Measured H3 receptor occupancy @ 2.5 h: 49%
  Measured H3 receptor occupancy @ 6 h: 32%
H3 receptor; pig 3
  Measured H3 receptor occupancy @ 10 min: 68%
  Measured H3 receptor occupancy @ 2.5 h: 43%
  Measured H3 receptor occupancy @ 6 h: 38%
H3 receptor; [5]
  Kd: 5.2 nM
  kon: 0.0025 min⁻¹
H3 receptor; mean of pigs 1-3
  Kd: 4.76 nM
  kon: 0.0024 min⁻¹
H3 receptor; pig 1, in vivo PK/RO model
  Kd: 5.6 nM
H3 receptor; pig 2, in vivo PK/RO model
  Kd: 5.05 nM
H3 receptor; pig 3, in vivo PK/RO model
  Kd: 3.61 nM
H3 receptor; PIG1, pig, pig 1, estimated model parameter
  koff: 5.5e-05 s⁻¹
H3 receptor; pig 1, estimated model parameter
  kon: 0.0017 min⁻¹
H3 receptor; pig 2, estimated model parameter
  kon: 0.0024 min⁻¹
H3 receptor; pig 3, estimated model parameter
  kon: 0.0031 min⁻¹
H3 receptor; pig, average model (from average plasma data and average occupancy)
  koff: 7.5e-05 s⁻¹
H3 receptor; pig, mean of pigs 1-3
  koff: 6.33e-05 s⁻¹
H3 receptor; pig, pig 2, estimated model parameter
  koff: 7e-05 s⁻¹
H3 receptor; pig, pig 3, estimated model parameter
  koff: 6.5e-05 s⁻¹

## CNC(=O)c1ccc(Oc2ccc3c(c2)CCN(C2CCC2)CC3)nc1 [GSK189254]
Histamine H3 receptor
  [3H]R-α-methylhistamine ex vivo binding in the rat cortex: inhibited
rats
  performance of rats in cognition paradigms: improved performance

## O=C(c1ccc(OCCCc2cnc[nH]2)cc1)C1CC1 [ciproxifan]
Rodent models
  cognitive effect in rodent models: cognitive enhancing properties

## CC(C)N1CCN(C(=O)c2ccc(OC3CCOCC3)cc2)CC1 [Example 3]
[3]
  thermodynamic stability relative to crystalline Form 1: more thermodynamically stable than crystalline Form 1

## CC(C)(C)CCC#C[C@@H]1C[C@H]1c1c[nH]cn1 [GT-2331]
Rodent models
  cognitive effect in rodent models: cognitive enhancing properties
